In patent publication US20090181991A1, “COMPOUNDS AND COMPOSITIONS AS PROTEIN KINASE INHIBITORS” (IRM LLC, priority 2005, published 2009):

Assays:
Test in all cases: Upstate KinaseProfiler radio-enzymatic filter binding assay
Assay type in all cases: biochemical
Details in all cases: 10 μM compound, remaining activity
[1] = target: T1, Bmx (Homo sapiens, UniProt P51813)
T1 construct: purchased Upstate
T1 sequence (P51813 1-675): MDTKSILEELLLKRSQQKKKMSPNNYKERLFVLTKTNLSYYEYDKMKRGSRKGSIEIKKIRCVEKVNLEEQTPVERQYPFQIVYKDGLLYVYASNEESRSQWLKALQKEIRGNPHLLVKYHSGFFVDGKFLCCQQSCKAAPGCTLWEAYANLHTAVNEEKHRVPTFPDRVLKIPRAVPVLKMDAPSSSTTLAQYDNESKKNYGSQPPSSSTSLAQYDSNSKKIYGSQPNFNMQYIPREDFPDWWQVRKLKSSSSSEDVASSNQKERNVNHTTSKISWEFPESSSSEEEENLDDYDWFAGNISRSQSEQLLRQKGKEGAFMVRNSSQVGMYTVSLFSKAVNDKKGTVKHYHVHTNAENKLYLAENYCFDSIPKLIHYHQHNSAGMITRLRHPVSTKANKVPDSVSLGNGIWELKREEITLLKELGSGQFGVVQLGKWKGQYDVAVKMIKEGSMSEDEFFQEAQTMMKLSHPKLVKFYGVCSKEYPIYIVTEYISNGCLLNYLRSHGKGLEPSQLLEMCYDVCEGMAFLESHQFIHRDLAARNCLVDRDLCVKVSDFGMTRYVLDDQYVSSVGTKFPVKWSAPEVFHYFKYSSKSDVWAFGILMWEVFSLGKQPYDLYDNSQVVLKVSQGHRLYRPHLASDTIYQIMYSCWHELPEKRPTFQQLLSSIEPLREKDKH
Method: (§1) Percentage inhibition is calculated for each reaction.

[2] = target: T2, Flt3 (Homo sapiens, UniProt P36888)
T2 construct: purchased Upstate
T2 sequence (P36888 27-993): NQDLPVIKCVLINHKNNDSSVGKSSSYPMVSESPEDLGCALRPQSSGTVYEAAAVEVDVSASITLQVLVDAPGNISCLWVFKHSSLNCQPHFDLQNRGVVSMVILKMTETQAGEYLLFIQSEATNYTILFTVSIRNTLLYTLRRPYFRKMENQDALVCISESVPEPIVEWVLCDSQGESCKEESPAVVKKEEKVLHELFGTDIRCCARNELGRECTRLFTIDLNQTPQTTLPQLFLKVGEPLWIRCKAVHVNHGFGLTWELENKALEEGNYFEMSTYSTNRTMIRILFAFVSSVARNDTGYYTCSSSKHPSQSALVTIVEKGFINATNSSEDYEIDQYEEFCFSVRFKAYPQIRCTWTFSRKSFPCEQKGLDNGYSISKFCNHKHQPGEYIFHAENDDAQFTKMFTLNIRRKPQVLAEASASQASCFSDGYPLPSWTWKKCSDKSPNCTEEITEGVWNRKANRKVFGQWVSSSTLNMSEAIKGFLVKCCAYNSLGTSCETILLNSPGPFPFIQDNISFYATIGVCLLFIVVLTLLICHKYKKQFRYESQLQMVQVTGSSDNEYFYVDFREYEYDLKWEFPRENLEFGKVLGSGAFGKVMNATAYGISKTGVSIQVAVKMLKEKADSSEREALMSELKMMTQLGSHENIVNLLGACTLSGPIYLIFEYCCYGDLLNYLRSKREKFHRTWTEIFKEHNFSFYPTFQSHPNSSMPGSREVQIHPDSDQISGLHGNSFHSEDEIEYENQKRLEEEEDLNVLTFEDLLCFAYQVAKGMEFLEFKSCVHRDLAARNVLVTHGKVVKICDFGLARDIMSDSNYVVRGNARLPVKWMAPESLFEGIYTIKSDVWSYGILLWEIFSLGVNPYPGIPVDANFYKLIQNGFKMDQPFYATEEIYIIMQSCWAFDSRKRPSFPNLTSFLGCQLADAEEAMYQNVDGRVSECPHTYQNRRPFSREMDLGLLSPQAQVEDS
Method: as §1

[3] = target: T3, Lck (Homo sapiens, UniProt P06239)
T3 construct: purchased Upstate
T3 sequence (P06239 whole entry): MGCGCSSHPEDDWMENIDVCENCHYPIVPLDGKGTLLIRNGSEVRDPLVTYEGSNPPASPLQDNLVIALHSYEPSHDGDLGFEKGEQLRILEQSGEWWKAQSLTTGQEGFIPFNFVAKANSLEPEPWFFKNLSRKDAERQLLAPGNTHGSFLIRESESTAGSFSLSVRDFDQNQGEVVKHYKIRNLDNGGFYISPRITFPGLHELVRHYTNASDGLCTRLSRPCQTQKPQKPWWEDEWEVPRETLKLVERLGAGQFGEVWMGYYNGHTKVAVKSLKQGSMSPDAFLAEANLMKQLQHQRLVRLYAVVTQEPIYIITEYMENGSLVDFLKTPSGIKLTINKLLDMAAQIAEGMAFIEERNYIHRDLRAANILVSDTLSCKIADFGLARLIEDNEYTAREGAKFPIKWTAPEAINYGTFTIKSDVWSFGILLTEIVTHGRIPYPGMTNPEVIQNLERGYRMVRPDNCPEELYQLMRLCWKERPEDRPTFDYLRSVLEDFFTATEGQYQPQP
Method: as §1

[4] = target: T4, SAPK2a (Homo sapiens, UniProt Q16539)
T4 construct: purchased Upstate
T4 sequence (Q16539 whole entry): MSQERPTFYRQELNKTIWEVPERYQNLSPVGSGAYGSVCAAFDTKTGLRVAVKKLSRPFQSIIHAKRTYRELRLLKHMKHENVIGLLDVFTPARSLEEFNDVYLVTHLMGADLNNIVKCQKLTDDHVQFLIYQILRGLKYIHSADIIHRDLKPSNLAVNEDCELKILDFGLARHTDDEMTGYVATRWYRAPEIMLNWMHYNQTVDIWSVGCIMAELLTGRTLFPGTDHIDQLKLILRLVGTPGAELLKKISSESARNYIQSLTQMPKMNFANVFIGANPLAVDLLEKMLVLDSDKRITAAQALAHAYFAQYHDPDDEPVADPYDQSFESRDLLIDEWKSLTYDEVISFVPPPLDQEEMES
Method: as §1

Measured: kinase activity

O=C(Nc1cccc(Nc2cc(Nc3cccc(C(F)(F)F)c3)ncn2)c1)C1CC1 [Example 1, Cyclopropanecarboxylic acid {3-[6-(3-trifluoromethyl-phenylamino)-pyrimidin-4-ylamino]-phenyl}-amide]
less than 50%: all assays above
